Laboratory results as given in patent US5891917A, “Certain acrylonitrile-sulfonamide derivatives” (Sugen, Inc., priority 1997, dated 1999).

Legend:
Type in all cases: cell-based
[1] = system: MCF7 cells; assay: MCF-7 SRB Growth Assay; conditions: Homo sapiens, read-out: Growth Data: MCF7 10% FBS
Description: (§1) The following examples illustrate the ability of the exemplary compounds to inhibit receptor tyrosine kinases, such as HER2 and/or EGFR. The following target cells were used for cellular kinase assays: NIH3T3 clone C7 (Honegger et al., supra) engineered to over-express human EGF receptor; NIH3T3 cells engineered to over-express a chimeric receptor containing the EGFR extracellular domain and the HER2 intracellular kinase domain; the human mammary carcinoma line BT474 (ATCC HTB2) expressing HER2; and the human glioblastoma line U1242 that expresses PDGFR-beta. Growth assays were carried out using human mammary epithelial SKBR3 (ATCC HTB30) cells (SKBR3 cells over-express HER2), SKOV3 (ATCC HTB77) human ovarian cancer cell line (SKOV3 cells also over-express HER2), A431 cells (A431 cells over-express EGFR) MCF7 human breast carcinoma cells, MCF7 cells overexpressing the HER2 kinase (MCF7-HER2), NIH3T3 cells, and NIH3T3 cells overexpressing the HER2 kinase (3T3-HER2.
MCF-7 cells are seeded at 2000 cells/well in a 96-well flat bottom plate in normal growth media, which was 10% FBS/RPMI supplemented with 2 mM Glutamine. The plate of cells is incubated for about 24 hours at […] after which it receives an equal volume of compound dilution per well making the total volume per well 200 μl. The compound is prepared at 2 times the desired highest final concentration and serially diluted in the normal growth media in a 96-well round bottom plate and then transferred to plate of cells. DMSO serves as the vector control up to 0.2% as final concentration. The cells are then incubated at 37° C. in a humidified 5% CO2 incubator.
Four days following dosing of compound, the media is 15 discarded and 200 μ/well of ice-cold 10% TCA (Trichloroacetic Acid) is added to fix cells. After 60 minutes at 4° C., the TCA is discarded and the plate is rinsed 5 times with water. The plate is then air-dried and 100 μl/well of 0.4% SRB (Sulforhodamine B from Sigma) 20 in 1% Acetic Acid is added to stain cells for 10 minutes at room temperature. The SRB is discarded and the plate is rinsed 5 times with 1% Acetic Acid. After the plate is completely dried, 100 μl/well of 10 mM Tris-base is added to solubilize the dye. After 5 to 10 minutes, the plate is read on a Dynatech ELISA Plate Reader at dual wavelengths at 570 nm and 630 nm.

[2] = target: T1, PDGFR-beta (Homo sapiens, UniProt P09619); assay: PDGF-R Cellular Assay (ELISA); conditions: U1242 MG cells, 100 ng/ml PDGF-BB
T1 construct: the human glioblastoma line U1242 that expresses PDGFR-beta; endogenous in cells; host or cells: U1242 MG human glioblastoma cells
Description: as §1
The PDGF cellular kinase assay was carried out as follows: cells are lysed in 0.2M Hepes, 0.15M NaCl, 10% V/V glycerol, 0.04% Triton X-100, 5 mM EDTA, 5 rnM Na+ vanadate and 2 mM Na+ pyrophosphate; cell lysates are then added to an ELISA plate coated with an anti-PDGF receptor antibody (Genzyme); ELISA plates are coated at 0.5 μg of antibody/well in 150 μl of PBS for 18 hours at 4° C. prior to the addition of the lysate; the lysate is incubated in the coated plates for 1 hour and then washed four times in TBST (35 mM Tris-HCl pH 7.0, 0.15M NaCl, 0.1% Triton X100); anti-phosphotyrosine antibody (100 μl in PBS) is added and the mixture is incubated for 30 minutes at room temperature; the wells were then washed four times in TBST, a secondary antibody conjugated to POD (TAGO) is added to each well, and the treated well are incubated for 30 minutes at room temperature; the wells are then washed four times in TBST, ABTS/H2 O2 solution is added to each well and the wells are incubated for two minutes; absorbance is then measured at 410 nm.
U1242 MG cells were plated in 96-well plates at a concentration of 5×10^4 cells/well in cultured media containing 0.5% FBS. The cells were incubated for 24 hours. The cells were then treated with a particular compound for 2 hours followed by the addition of 100 ng/ml PDGF-BB and incubation for 10 minutes.
Cells were lysed in 0.2M Hepes, 0.15M NaCl, 10% V/V glycerol, 0.04% Triton X-100, 5 mM EDTA, 5 mM Na+ vanadate and 2 mM Na+ pyrophosphate. Cell lysates were then added to an ELISA plate coated with an anti-PDGF receptor antibody (Genzyme). ELISA plates were coated at 0.5 μg of antibody/well in 150 μl of PBS for 18 hours at 4° C. prior to the addition of the lysate.
The lysate was incubated in the coated plates for 1 hour and then washed four times in TBST (35 mM Tris-HCl pH 7.0, 0.15M NaCl, 0.1 % Triton X-100). Anti-phosphotyrosine antibody (100 μl in PBS) was added and the mixture was incubated for 30 minutes at room temperature. The wells were then washed four times in TBST, a secondary antibody conjugated to POD (TAGO) was added to each well, and the treated well were incubated for 30 minutes at room temperature. The wells were then washed four times in TBST, ABTS/H2 O2 solution was added to each well and the wells were incubated for two minutes. Absorbance was then measured at 410 nm.

[3] = system: MCF7/HER2 cells; assay: MCF-7/HER-2 SRB Growth Assay; conditions: Homo sapiens, read-out: Growth Data: MC7/HER2 (0.5% FBS)
Description: as §1
MCF-7/HER-2 SRB Growth Assay
The protocol is basically the same as that above (for the MCF-7 Growth Assay) except that immediately before the 30 compound is added, the normal growth media is removed and 0.5% FBS/RPMI supplemented with 2 mM Glutamine is added onto the cells. The compound is also prepared in this 0.5% serum media. The plate of cells is incubated for four days and developed as usual.

T1 sequence (P09619 33-1106): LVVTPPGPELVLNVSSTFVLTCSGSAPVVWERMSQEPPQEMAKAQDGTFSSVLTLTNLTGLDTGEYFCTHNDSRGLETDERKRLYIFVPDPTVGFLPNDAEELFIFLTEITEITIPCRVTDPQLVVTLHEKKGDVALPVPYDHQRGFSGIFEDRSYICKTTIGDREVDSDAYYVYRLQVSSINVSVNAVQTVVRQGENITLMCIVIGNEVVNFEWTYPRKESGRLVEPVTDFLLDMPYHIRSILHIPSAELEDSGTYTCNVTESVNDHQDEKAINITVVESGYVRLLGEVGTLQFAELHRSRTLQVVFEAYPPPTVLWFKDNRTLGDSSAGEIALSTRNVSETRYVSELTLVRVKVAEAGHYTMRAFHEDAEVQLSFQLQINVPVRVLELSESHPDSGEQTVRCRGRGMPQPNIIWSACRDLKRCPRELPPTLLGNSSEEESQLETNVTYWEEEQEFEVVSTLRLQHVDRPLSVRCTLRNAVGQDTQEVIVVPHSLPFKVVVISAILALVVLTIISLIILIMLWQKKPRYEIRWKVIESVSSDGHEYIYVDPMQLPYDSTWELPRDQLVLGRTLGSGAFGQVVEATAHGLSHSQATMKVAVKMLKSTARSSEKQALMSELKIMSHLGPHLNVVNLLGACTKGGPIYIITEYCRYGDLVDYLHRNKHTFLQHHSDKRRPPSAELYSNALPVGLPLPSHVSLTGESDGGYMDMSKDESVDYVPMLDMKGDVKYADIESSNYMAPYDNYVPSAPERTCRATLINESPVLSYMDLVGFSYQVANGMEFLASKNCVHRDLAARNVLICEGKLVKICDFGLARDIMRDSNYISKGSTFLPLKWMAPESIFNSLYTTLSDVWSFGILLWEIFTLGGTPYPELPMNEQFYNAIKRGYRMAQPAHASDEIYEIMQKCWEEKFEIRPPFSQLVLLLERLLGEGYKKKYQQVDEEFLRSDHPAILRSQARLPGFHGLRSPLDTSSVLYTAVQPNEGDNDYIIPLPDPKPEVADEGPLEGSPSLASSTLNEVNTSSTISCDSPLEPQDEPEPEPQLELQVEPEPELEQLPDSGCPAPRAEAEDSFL

IC50 [1] [µM]	IC50 [2] [µM]	IC50 [3] [µM]	SMILES
2	> 100	0.3	CC(C)(C)c1cc(/C=C(\C#N)S(=O)(=O)c2ccsc2)cc(C(C)(C)C)c1O [Compound 746]
> 100	> 100	46	Cc1cc(/C=C(\C#N)S(=O)(=O)c2ccccc2)cc(C)c1O [Compound 748]
2	> 100	0.2	CC(C)(C)c1cc(/C=C(\C#N)S(=O)(=O)c2cccs2)cc(C(C)(C)C)c1O [Compound 742]
17	> 100	3	CC(C)c1cc(/C=C(\C#N)S(=O)(=O)c2ccsc2)cc(C(C)C)c1O [Compound 738]
13	50	2.5	CC(C)c1cc(/C=C(\C#N)S(=O)(=O)NCc2ccccc2)cc(C(C)C)c1O [Compound 732]
55	> 50	26	CC(C)c1cc(/C=C(\C#N)S(=O)(=O)c2ccccn2)cc(C(C)C)c1O [Compound 747]
56	> 50	7	N#C/C(=C\c1ccc(O)cc1Cl)S(=O)(=O)NCCCc1ccccc1 [Compound 734]
65	> 50	16	N#C/C(=C\c1ccc(O)cc1Cl)S(=O)(=O)NCc1ccccc1 [Compound 733]
8	> 100	1	CC(C)c1cc(/C=C(\C#N)S(=O)(=O)Cc2cccc(C(F)(F)F)c2)cc(C(C)C)c1O [Compound 736]
	> 100		N#C/C(=C\c1ccc(O)c(O)c1)S(=O)(=O)c1cccs1 [Compound 743, (E)-3-(3,4-Dihydroxyphenyl)-2-[(thien-2-yl)sulfonyl]acrylonitrile]
8	> 100	1	CC(C)c1cc(/C=C(\C#N)S(=O)(=O)c2ccc(F)cc2)cc(C(C)C)c1O [Compound 741, (E)-3-(3,5-Diisopropyl-4-hydroxyphenyl)-2-(4-fluorophenylsulfonyl)acrylonitrile]
12	> 50	1	CC(C)c1cc(/C=C(\C#N)S(=O)(=O)c2ccccc2)cc(C(C)C)c1O [Compound 731]
> 100	> 100	46	Cc1cc(/C=C(\C#N)S(=O)(=O)c2ccc(F)cc2)cc(C)c1O [Compound 744]
35	> 100	14	Cc1cc(/C=C(\C#N)S(=O)(=O)Cc2cccc(C(F)(F)F)c2)cc(C)c1O [Compound 739]
16	> 100	3	CC(C)c1cc(/C=C(\C#N)S(=O)(=O)c2cccs2)cc(C(C)C)c1O [Compound 737]
0.2	> 100	0.007	CC(C)(C)c1cc(/C=C(\C#N)S(=O)(=O)c2ccc(F)cc2)cc(C(C)(C)C)c1O [Compound 740]
0.7	> 100	0.5	CC(C)(C)c1cc(/C=C(\C#N)S(=O)(=O)Cc2cccc(C(F)(F)F)c2)cc(C(C)(C)C)c1O [Compound 735]
